Assay results from patent US20100209496A1, “LIQUID AND SEMI-SOLID PHARMACEUTICAL FORMULATIONS FOR ORAL ADMINISTRATION OF A SUBSTITUTED AMIDE” (priority 2006, published 2010).

What was measured:
[1] = Bioavailability when dosed as a crystalline solid (dogs); type: in vivo
[2] = Bioavailability (drug plasma levels) from liquid-filled capsule dosage form; type: in vivo; details: compound in solution in liquid and semi-solid excipients, versus crystalline solid
[3] = Bioavailability when dosed as a crystalline solid (rats); type: in vivo
[4] = Compound I Form I solubility in various liquid vehicles; type: physicochemical; details: aqueous

With “3-[(3aR,4R,5S,7aS)-5-{(1R)-1-[3,5-bis(Trifluoromethyl)phenyl]ethoxy}-4-(4-fluorophenyl)-octahydro-2H-isoindol-2-yl]cyclopent-2-en-1-one [Compound I]” the bioavailability [1] was “poorly bioavailable”, the bioavailability [2] was “increased dramatically” and the bioavailability [3] was “poorly bioavailable”. For the same substance, the aqueous solubility [4] was under 0.2 µg/mL.
